Experimental data reported in patent US8431563B2 (priority 2010, dated 2013).
Like-named read-outs stand apart in the source and are kept apart here.

Legend:
[1] = molecular target: T1, GKRP (Glucokinase Regulatory Protein) with human His-hepatic GK (Homo sapiens, UniProt Q14397); test: biochemical; details: 13C-glucose-6-phosphate formation, 280 nM GKRP (10×), 30 nM GK (5×)
T1 sequence (Q14397 1-625): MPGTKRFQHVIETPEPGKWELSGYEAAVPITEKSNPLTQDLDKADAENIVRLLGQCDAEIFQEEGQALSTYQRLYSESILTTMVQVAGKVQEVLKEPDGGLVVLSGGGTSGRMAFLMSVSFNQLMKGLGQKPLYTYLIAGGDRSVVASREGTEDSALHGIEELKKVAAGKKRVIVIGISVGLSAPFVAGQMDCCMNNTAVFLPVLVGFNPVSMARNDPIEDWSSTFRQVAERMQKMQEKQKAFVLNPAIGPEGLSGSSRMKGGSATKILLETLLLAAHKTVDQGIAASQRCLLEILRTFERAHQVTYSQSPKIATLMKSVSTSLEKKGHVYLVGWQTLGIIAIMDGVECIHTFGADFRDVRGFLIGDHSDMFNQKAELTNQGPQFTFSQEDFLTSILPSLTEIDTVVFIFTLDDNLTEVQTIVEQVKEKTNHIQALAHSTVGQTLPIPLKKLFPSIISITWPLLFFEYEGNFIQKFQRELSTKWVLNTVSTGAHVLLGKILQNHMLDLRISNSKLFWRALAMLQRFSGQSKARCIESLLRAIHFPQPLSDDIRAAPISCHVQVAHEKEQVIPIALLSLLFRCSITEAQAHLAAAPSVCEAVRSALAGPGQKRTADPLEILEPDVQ
Summary of the method: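 Human His-tagged hepatic GK (30 nM in the 5× working stock) in 50 mM Tris pH 7.5, 4 mM MgCl2, 6% DMSO with DTT, BSA and Brij-35. Enzyme was added after a 30 min step and reacted 30 min at room temperature. The reaction was stopped with acetonitrile and 13C-glucose-6-phosphate formed from 13C-glucose was quantified by LC MS/MS.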

[2] = molecular target: T2, interaction between glucokinase (GK) and glucokinase regulatory protein (GKRP) (Homo sapiens, UniProt Q14397); test: biochemical; format: binding; details: avi-tagged GKRP, GK-fluorescein, AlphaScreen beads; read-out: GK-GKRP IC50 (Binding)
T2 sequence (Q14397 1-625): T1 sequence (Q14397 1-625)
Summary of the method: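 Avi-tagged human GKRP preincubated with compound for 20 min at room temperature, then 6 nM GK-fluorescein (concentration of added solution) introduced and incubated 2 h in the dark. Buffer: 20 mM Tris pH 7.5, 0.05% BSA, 1 mM DTT, 1 μM sorbitol-6-phosphate. Plate read on a fluorescence reader.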

[3] = read-out: GK-GKRP EC50 (LC MS/MS-2)

Work on `Nc1ccc(S(=O)(=O)N2CCN(c3ncc(C(O)(C(F)(F)F)C(F)(F)F)cn3)[C@@H](CC3CCOCC3)C2)cn1` [Example 130, 2-(2-((2S)-4-((6-amino-3-pyridinyl)sulfonyl)-2-(tetrahydro-2H-pyran-4-ylmethyl)-1-piperazinyl)-5-pyrimidinyl)-1,1,1,3,3,3-hexafluoro-2-propanol] yielded an EC50 [1, 3] of 134 nM and an IC50 [2] of 62 nM.
`Nc1ccc(S(=O)(=O)N2CCN(c3ncc(C(O)(C(F)(F)F)C(F)(F)F)cn3)[C@@H](CC3CCOCC3)C2)s1` [Example 133, 2-(2-((2S)-4-((5-amino-2-thiophenyl)sulfonyl)-2-(tetrahydro-2H-pyran-4-ylmethyl)-1-piperazinyl)-5-pyrimidinyl)-1,1,1,3,3,3-hexafluoro-2-propanol] showed an EC50 ([1]; GK-GKRP EC50 (LC MS/MS-2)) of 59 nM and an IC50 [2] of 47 nM.
Molecule `O=S(=O)(c1cccs1)N1CCN(c2ncc(C(O)(C(F)(F)F)C(F)(F)F)cn2)[C@@H](CC2CCOCC2)C1` [Example 134, 1,1,1,3,3,3-hexafluoro-2-(2-((2S)-2-(tetrahydro-2H-pyran-4-ylmethyl)-4-(2-thiophenylsulfonyl)-1-piperazinyl)-5-pyrimidinyl)-2-propanol] has an EC50 [1, 3] of 79 nM and an IC50 [2] of 122 nM.
For `C[C@H]1CN(S(=O)(=O)c2nccs2)CCN1c1ncc(C(O)(C(F)(F)F)C(F)(F)F)cn1` [Example 146, 1,1,1,3,3,3-hexafluoro-2-(2-((2S)-2-methyl-4-(1,3-thiazol-2-ylsulfonyl)-1-piperazinyl)-5-pyrimidinyl)-2-propanol], the EC50 [1, 3] was 867 nM and the IC50 [2] was 630 nM.
For `C[C@H]1CN(S(=O)(=O)c2ccc(N)s2)CCN1c1ccc(C(O)(C(F)(F)F)C(F)(F)F)cc1` [Example 149, 2-(4-((2S)-4-((5-amino-2-thiophenyl)sulfonyl)-2-methyl-1-piperazinyl)phenyl)-1,1,1,3,3,3-hexafluoro-2-propanol], the EC50 [1, 3] was 109 nM and the IC50 [2] was 450 nM.
In the case of `O=S(=O)(c1cccs1)N1CCN(c2ccc(C(O)(C(F)(F)F)C(F)(F)F)cc2C#CCCO)CC1` [Example 150, 4-(2-(4-(2-thiophenylsulfonyl)-1-piperazinyl)-5-(2,2,2-trifluoro-1-hydroxy-1-(trifluoromethyl)ethyl)phenyl)-3-butyn-1-ol], the EC50 [1, 3] is reported as 895 nM and the IC50 [2] is reported as 656 nM.
Work on `O=S(=O)(c1cccs1)N1CCN(c2ccc(C(O)(C(F)(F)F)C(F)(F)F)cc2C#CCO)CC1` [Example 152, 3-(2-(4-(2-thiophenylsulfonyl)-1-piperazinyl)-5-(2,2,2-trifluoro-1-hydroxy-1-(trifluoromethyl)ethyl)phenyl)-2-propyn-1-ol] yielded an EC50 [1, 3] of 557 nM and an IC50 [2] of 712 nM.
`COCC#Cc1cc(C(O)(C(F)(F)F)C(F)(F)F)ccc1N1CCN(S(=O)(=O)c2cccs2)CC1` [Example 153, 1,1,1,3,3,3-hexafluoro-2-(3-(3-methoxyprop-1-YNYL)-4-(4-(thiophen-2-ylsulfonyl)piperazin-1-yl)phenyl)propan-2-ol] gave an EC50 [1, 3] of 675 nM and an IC50 [2] of 363 nM.
With `CS(=O)(=O)NCC#Cc1cc(C(O)(C(F)(F)F)C(F)(F)F)ccc1N1CCN(S(=O)(=O)c2cccs2)CC1` [Example 160, N-(3-(2-(4-(2-thiophenylsulfonyl)-1-piperazinyl)-5-(2,2,2-trifluoro-1-hydroxy-1-(trifluoromethyl)ethyl)phenyl)-2-propyn-1-yl)methanesulfonamide] the EC50 [1, 3] was 412 nM and the IC50 [2] was 783 nM.
`C[C@H]1CN(S(=O)(=O)c2ccccc2N)CCN1c1ncc(C(O)(C(F)(F)F)C(F)(F)F)cn1` [Example 167, (S)-2-(2-(4-(2-aminophenylsulfonyl)-2-methylpiperazin-1-yl)pyrimidin-5-yl)-1,1,1,3,3,3-hexafluoro-2-propanol] was tested, and the EC50 [1, 3] was 516 nM and the IC50 [2] was 508 nM.
For `C[C@H]1CN(S(=O)(=O)c2ccccc2N)CCN1c1ccc(C(O)(C(F)(F)F)C(F)(F)F)cc1` [Example 168, 2-(4-((2S)-4-((2-aminophenyl)sulfonyl)-2-methyl-1-piperazinyl)phenyl)-1,1,1,3,3,3-hexafluoro-2-propanol], the EC50 [1, 3] was 533 nM and the IC50 [2] was 660 nM.
Work on `CC(O)(c1ccc(N2CCN(S(=O)(=O)c3cccs3)C[C@@H]2CN(C2CCC2)S(C)(=O)=O)cc1)C(F)(F)F` (stereo partly drawn) [Example 212, N-cyclobutyl-N-(((2R)-4-(2-thiophenylsulfonyl)-1-(4-(2,2,2-trifluoro-1-hydroxy-1-methylethyl)phenyl)-2-piperazinyl)methyl) methanesulfonamide] yielded an EC50 [1, 3] of 92 nM and an IC50 [2] of 68 nM.
For `CC1(C)C(=O)NCCN1C[C@H]1CN(S(=O)(=O)c2cccs2)CCN1c1ncc(C(O)(C(F)(F)F)C(F)(F)F)cn1` [Example 226, 3,3-dimethyl-4-(((2S)-4-(2-thiophenylsulfonyl)-1-(5-(2,2,2-trifluoro-1-hydroxy-1-(trifluoromethyl)ethyl)-2-pyrimidinyl)-2-piperazinyl)methyl)-2-piperazinone], the EC50 [1, 3] was 14 nM and the IC50 [2] was 6 nM.
`CC1(C)C(=O)NCCN1C[C@H]1CN(S(=O)(=O)c2ccc(N)s2)CCN1c1ncc(C(O)(C(F)(F)F)C(F)(F)F)cn1` [Example 227, (S)-4-((4-((5-aminothiophen-2-yl)sulfonyl)-1-(5-(1,1,1,3,3,3-hexafluoro-2-hydroxypropan-2-yl)pyrimidin-2-yl)piperazin-2-yl)methyl)-3,3-dimethylpiperazin-2-one] gave an EC50 [1, 3] of 21 nM and an IC50 [2] of 2 nM.
Work on `CC(C)CN(C[C@H]1CN(S(=O)(=O)c2ccc(N)s2)CCN1c1ncc(C(O)(C(F)(F)F)C(F)(F)F)cn1)S(C)(=O)=O` [Example 229, N-(((2S)-4-((5-amino-2-thiophenyl)sulfonyl)-1-(5-(2,2,2-trifluoro-1-hydroxy-1-(trifluoromethyl)ethyl)-2-pyrimidinyl)-2-piperazinyl)methyl)-N-(2-methylpropyl)methanesulfonamide] yielded an EC50 [1, 3] of 13 nM and an IC50 [2] of 1 nM.
`CC(C)CN(C[C@H]1CN(S(=O)(=O)c2cccnc2N)CCN1c1ncc(C(O)(C(F)(F)F)C(F)(F)F)cn1)S(C)(=O)=O` [Example 230 (2-amino-3-pyridinyl), N-(((2S)-4-((2-amino-3-pyridinyl)sulfonyl)-1-(5-(2,2,2-trifluoro-1-hydroxy-1-(trifluoromethyl)ethyl)-2-pyrimidinyl)-2-piperazinyl)methyl)-N-(2-methylpropyl)methanesulfonamide] showed an EC50 [1, 3] of 95 nM and an IC50 [2] of 64 nM.
`CC(C)CN(C[C@H]1CN(S(=O)(=O)c2ccc(N)nc2)CCN1c1ncc(C(O)(C(F)(F)F)C(F)(F)F)cn1)S(C)(=O)=O` [Example 230 (6-amino-3-pyridinyl), N-(((2S)-4-((6-amino-3-pyridinyl)sulfonyl)-1-(5-(2,2,2-trifluoro-1-hydroxy-1-(trifluoromethyl)ethyl)-2-pyrimidinyl)-2-piperazinyl)methyl)-N-(2-methylpropyl)methanesulfonamide] gave an EC50 [1, 3] of 11 nM and an IC50 [2] of 1 nM.
`CC(C)N(C[C@H]1CN(S(=O)(=O)c2ccc(N)s2)CCN1c1ncc(C(O)(C(F)(F)F)C(F)(F)F)cn1)S(C)(=O)=O` [Example 231, N-(((2R)-4-((5-amino-2-thiophenyl)sulfonyl)-1-(5-(2,2,2-trifluoro-1-hydroxy-1-(trifluoromethyl)ethyl)-2-pyrimidinyl)-2-piperazinyl)methyl)-N-(1-methylethyl)methanesulfonamide] gave an EC50 [1, 3] of 20 nM and an IC50 [2] of 7 nM.
For `CC(C)N(C[C@H]1CN(S(=O)(=O)c2ccc(N)nc2)CCN1c1ncc(C(O)(C(F)(F)F)C(F)(F)F)cn1)S(C)(=O)=O` [Example 232, N-(((2R)-4-((6-amino-3-pyridinyl)sulfonyl)-1-(5-(2,2,2-trifluoro-1-hydroxy-1-(trifluoromethyl)ethyl)-2-pyrimidinyl)-2-piperazinyl)methyl)-N-(1-methylethyl)methanesulfonamide], the EC50 [1, 3] was 63 nM and the IC50 [2] was 35 nM.
In the case of `CS(=O)(=O)N(C[C@H]1CN(S(=O)(=O)c2ccc(N)s2)CCN1c1ncc(C(O)(C(F)(F)F)C(F)(F)F)cn1)c1ccccc1` [Example 233, N-(((2R)-4-((5-amino-2-thiophenyl)sulfonyl)-1-(5-(2,2,2-trifluoro-1-hydroxy-1-(trifluoromethyl)ethyl)-2-pyrimidinyl)-2-piperazinyl)methyl)-N-phenylmethanesulfonamide], the EC50 [1, 3] is reported as 8 nM and the IC50 [2] is reported as under 1 nM.
